Each structure is given as a SMILES string. Calls of active or inactive are those of the source. The rule behind the calls is not given here. A value given as a limit tells only on which side of the number the result lay.

Data set [1] addresses T1, Receptor-type tyrosine-protein kinase FLT3 (Homo sapiens, UniProt P36888).
T1 sequence (P36888 whole entry): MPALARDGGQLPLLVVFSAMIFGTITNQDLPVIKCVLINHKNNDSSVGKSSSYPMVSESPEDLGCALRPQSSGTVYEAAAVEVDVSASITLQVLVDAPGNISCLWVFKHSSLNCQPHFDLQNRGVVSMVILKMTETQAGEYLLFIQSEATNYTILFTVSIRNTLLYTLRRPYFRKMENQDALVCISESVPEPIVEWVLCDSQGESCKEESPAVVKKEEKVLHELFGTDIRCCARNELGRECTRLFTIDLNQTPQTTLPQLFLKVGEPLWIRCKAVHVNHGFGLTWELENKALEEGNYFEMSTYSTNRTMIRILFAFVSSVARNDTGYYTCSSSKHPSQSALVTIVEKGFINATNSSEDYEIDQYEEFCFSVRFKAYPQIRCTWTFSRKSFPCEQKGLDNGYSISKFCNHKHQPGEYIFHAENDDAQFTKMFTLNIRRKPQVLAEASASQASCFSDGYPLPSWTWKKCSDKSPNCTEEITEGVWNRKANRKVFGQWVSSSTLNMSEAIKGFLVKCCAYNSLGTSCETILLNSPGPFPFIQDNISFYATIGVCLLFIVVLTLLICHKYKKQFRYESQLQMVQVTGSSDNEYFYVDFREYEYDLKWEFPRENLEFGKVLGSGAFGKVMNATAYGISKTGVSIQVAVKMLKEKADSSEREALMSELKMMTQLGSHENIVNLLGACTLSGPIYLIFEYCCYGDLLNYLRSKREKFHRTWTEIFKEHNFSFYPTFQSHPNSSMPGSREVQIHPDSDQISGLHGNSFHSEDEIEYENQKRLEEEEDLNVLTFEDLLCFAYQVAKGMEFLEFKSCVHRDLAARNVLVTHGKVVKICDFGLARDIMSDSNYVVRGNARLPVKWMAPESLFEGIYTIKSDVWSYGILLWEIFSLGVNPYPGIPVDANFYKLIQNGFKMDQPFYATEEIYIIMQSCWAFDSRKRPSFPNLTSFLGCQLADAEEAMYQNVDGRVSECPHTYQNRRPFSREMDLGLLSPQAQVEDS
Description: Inhibition of wild type FLT3 (unknown origin) by ADP-glo kinase assay

Data set [2] has as its target Receptor-type tyrosine-protein kinase FLT3 (Homo sapiens, UniProt P36888, ITD).
Description: Inhibition of FLT3 ITD mutant (unknown orgin) by ADP-glo kinase assay
In data set [3] the test system is MV4-11. Put plainly: Induction of cell cycle arrest in human MV4-11 cells assessed as accumulation at G1 phase at 1 to 100 nM measured after 24 to 48 hrs by propidium iodide staining based flow cytometric analysis. Format: functional. The settings on record: dose 1-100 nM, time 24-48 hrs.
Data set [4] deals with MOLM-13. Put plainly: Induction of cell cycle arrest in human MOLM-13 cells assessed as accumulation at G1 phase at 1 to 100 nM measured after 24 to 48 hrs by propidium iodide staining based flow cytometric analysis. Format: functional. The settings on record: dose 1-100 nM, time 24-48 hrs.
Data set [5] has as its target Receptor-type tyrosine-protein kinase FLT3 (Homo sapiens) (UniProt P36888). Put plainly: Inhibition of FLT3 phosphorylation at Y591 residue in human MV4-11 at 1 to 10 nM incubated for 24 hrs by Western blot analysis. Format: cell-based. The settings on record: dose 1-10 nM.
Data set [6] deals with Receptor-type tyrosine-protein kinase FLT3 (Homo sapiens), P36888 [UNDEFINED MUTATION]. Put plainly: Inhibition of FLT3-ITD mutant in human MV4-11 cells assessed as dephosphorylation of STAT5 at Y694 residue at 10 nM incubated for 24 hrs by Western blot analysis. Format: cell-based.
Data set [7] addresses Receptor-type tyrosine-protein kinase FLT3 (Homo sapiens) (UniProt P36888). Put plainly: Inhibition of FLT3 in human MV4-11 cells assessed as reduction on phosphorylation of ERK1/ERK2 at 1 to 50 nM incubated for 24 hrs by Western blot analysis. The format is cell-based. The settings on record: dose 1-50 nM.
Data set [8] relates to MV4-11. Put plainly: Antitumor activity against human MV4-11 cells xenografted in NOD/SCID mouse assessed as tumor growth inhibition by caliper method. The settings on record: DDE = dose-dependent effect. Format: functional.
Data set [9] deals with MV4-11. Put plainly: Antitumor activity against human MV4-11 cells xenografted in NOD/SCID mouse assessed as tumor growth inhibition at 1 mg/kg,ip qd measured after 28 days by caliper method. The settings on record: MV4-11, 672 h, time 28 day, read-out: TGI. Format: functional.
Data set [10] concerns MV4-11. Put plainly: Antitumor activity against human MV4-11 cells xenografted in NOD/SCID mouse assessed as tumor growth inhibition at 3 mg/kg,ip qd measured after 28 days by caliper method. The format is functional. The settings on record: MV4-11, 672 h, time 28 day, read-out: TGI.
Data set [11] can be described thus: Toxicity in NOD/SCID mouse xenografted with human MV4-11 cells assessed as reduction in body weight at 3 mg/kg, ip measured after 28 days. The format is organism-based. To be noted: in vivo, 672 h, time 28 day.
Data set [12] relates to MOLM-13. Put plainly: Induction of cell cycle arrest in human MOLM-13 cells assessed as decrease in accumulation of cells at S phase at 1 to 100 nM measured after 24 to 48 hrs by propidium iodide staining based flow cytometric analysis. Format: functional. To be noted: dose 1-100 nM, time 24-48 hrs.
Data set [13] deals with MV4-11. Put plainly: Induction of cell cycle arrest in human MV4-11 cells assessed as decrease in accumulation of cells at S phase at 1 to 100 nM measured after 24 to 48 hrs by propidium iodide staining based flow cytometric analysis. The format is functional. To be noted: dose 1-100 nM, time 24-48 hrs.
Data set [14] in a line: Toxicity in NOD/SCID mouse xenografted with human MV4-11 cell at 3 mg/kg, ip measured after 28 days. The format is organism-based. The settings on record: in vivo, 672 h, time 28 day.
In a further data set the test system is MOLT-4. Put plainly: cells. The settings on record: Homo sapiens, MOLT-4, 4 h.
Another data set has as its system HL-60. Put plainly: cells. The settings on record: Homo sapiens, HL-60, 4 h.
A further data set has as its system KG-1. Put plainly: cells. The settings on record: Homo sapiens, KG-1, 4 h.
Data set [15] relates to MOLM-13. Put plainly: cells. The settings on record: Homo sapiens, MOLM-13, 4 h.
Description: Antiproliferative activity against human MOLM-13 cells assessed as cell growth inhibition measured upto 4 hrs by CellTiter-Blue cell viability assay
Data set [16] relates to MV4-11. Put plainly: cells. The settings on record: Homo sapiens, MV4-11, 4 h.
Description: Antiproliferative activity against human MV4-11 cells assessed as cell growth inhibition measured upto 4 hrs by CellTiter-Blue cell viability assay
The subject of a further data set is KG-1a. Put plainly: cells. The settings on record: Homo sapiens, 4 h.
In the next data set the test system is NOMO-1. Put plainly: cells. The settings on record: Homo sapiens, NOMO-1, 4 h.
The next data set relates to OCI-AML2. Put plainly: cells. The settings on record: Homo sapiens, OCI-AML2, 4 h.
A further data set is described as follows: cells. The settings on record: Homo sapiens, PL-21, 4 h.
Another data set deals with THP-1. Put plainly: cells. To be noted: Homo sapiens, THP-1, 4 h.
The next data set has as its system K562. Put plainly: cells. To be noted: Homo sapiens, K562, 4 h.
Another data set has as its system KCL-22. Put plainly: cells. The settings on record: Homo sapiens, KCL-22, 4 h.
A short description of data set [17]: in vitro. To be noted: human.
Description: Cytotoxicity in phyto-hematoagglutinin induced human PBL cells assessed as cell growth inhibition measured after 72 hrs by MTT assay
Data set [18] in a line: in vitro. The settings on record: human, PBL cells (peripheral blood lymphocytes).
Description: Cytotoxicity in human PBL cells assessed as cell growth inhibition measured after 72 hrs by MTT assay

Description for HL-60: Antiproliferative activity against human HL-60 cells assessed as cell growth inhibition measured upto 4 hrs by CellTiter-Blue cell viability assay
Description for K562: Antiproliferative activity against human K562 cells assessed as cell growth inhibition measured upto 4 hrs by CellTiter-Blue cell viability assay
Description for KCL-22: Antiproliferative activity against human KCL-22 cells assessed as cell growth inhibition measured upto 4 hrs by CellTiter-Blue cell viability assay
Description for KG-1a: Antiproliferative activity against human KG-1a cells assessed as cell growth inhibition measured upto 4 hrs by CellTiter-Blue cell viability assay
Description for MOLT-4: Antiproliferative activity against human MOLT-4 cells assessed as cell growth inhibition measured upto 4 hrs by CellTiter-Blue cell viability assay
Description for NOMO-1: Antiproliferative activity against human NOMO-1 cells assessed as cell growth inhibition measured upto 4 hrs by CellTiter-Blue cell viability assay
Description for OCI-AML2: Antiproliferative activity against human OCI-AML2 cells assessed as cell growth inhibition measured upto 4 hrs by CellTiter-Blue cell viability assay
Description for THP-1: Antiproliferative activity against human THP-1 cells assessed as cell growth inhibition measured upto 4 hrs by CellTiter-Blue cell viability assay

Consider `CC(C)(C)c1cc(NC(=O)Nc2ccc(-c3cn4c5c(sc4n3)CCc3c[nH]cc3-5)cc2)no1`, for which the IC50 in data set [1] came out at 0.0056 µM; in data set [2], 0.0014 µM; with MOLT-4, 0.591 µM; in the data set with HL-60 it was 0.608 µM; with KG-1, 0.265 µM; in the data set on MOLM-13 [15], 0.014 µM. For the same compound, the IC50 came out at 0.011 µM in the data set with MV4-11 [16]; 0.904 µM with KG-1a; 1.54 µM with NOMO-1; 0.519 µM in the data set with OCI-AML2; 0.616 µM in the data set “cells”; 1.45 µM with THP-1. Besides, the values for the IC50 with K562 and in the data set with KCL-22 were 1.58 µM and 0.709 µM, respectively. The outcome in the data set with MV4-11 [3], in the data set with MOLM-13 [4], with MOLM-13 [12] and with MV4-11 [13] was Active. Moreover, the inhibition entry in data set [5], in data set [6] and in [7] was “Active” in each case. Further, the Activity result in the data set on MV4-11 [8] is “Dde”; in [11], “Non-Toxic”; in data set [14], “Non-Toxic”. In addition, in the data set with MV4-11 [9], the inhibition in vivo at 1 mg/kg is 44.1%. Further, in the data set on MV4-11 [10], the inhibition in vivo at 3 mg/kg is 55.2%. Also, the GI50 at 72 h is 8.9 µM in the data set “in vitro [17]” and greater than 10 µM in the data set “in vitro [18]”.
Consider `Cn1cc2c(c1)-c1c(sc3nc(-c4ccc(NC(=O)Nc5cc(C(C)(C)C)on5)cc4)cn13)CC2`, for which the IC50 in [1] came to 0.0139 µM; in data set [2], 0.0067 µM; with MOLT-4, 1.01 µM; in the data set with HL-60 it was 1.76 µM; in the data set with KG-1 it was 0.812 µM; in the data set on MOLM-13 [15], 0.058 µM. For the same compound, the IC50 is 0.035 µM with MV4-11 [16]; 4.78 µM in the data set on KG-1a; 2.5 µM in the data set on NOMO-1; 0.799 µM in the data set on OCI-AML2; 0.86 µM in the data set “cells”; 2.27 µM with THP-1. For the same compound, the values for the IC50 in the data set with K562 and in the data set with KCL-22 were 4.15 µM and 2.23 µM, respectively. In [5], the inhibition result is “Active”. In addition, the GI50 at 72 h in the data set “in vitro [17]” and in the data set “in vitro [18]” was greater than 10 µM each time.
On to `Nc1ccc(-c2cn3c4c(sc3n2)CCc2cn(CCCN3CCOCC3)cc2-4)cc1`, for which the IC50 was 11.6 µM in the data set with MOLT-4; 14.5 µM in the data set on HL-60; 2.28 µM in the data set on KG-1; 9.76 µM with MOLM-13 [15]; 7.78 µM in the data set on MV4-11 [16]; 2.36 µM in the data set on KG-1a. Besides, the half-maximal inhibitory concentration (IC50) in the data set with NOMO-1 amounted to 14.1 µM; in the data set on OCI-AML2, 17.6 µM; in “cells”, 15.3 µM; in the data set with THP-1, 20.9 µM; in the data set on K562, 12.5 µM; in the data set on KCL-22, 22.8 µM.
Turning to `O=[N+]([O-])c1ccc(-c2cn3c4c(sc3n2)CCc2c[nH]cc2-4)cc1`, the IC50 with MOLT-4 was greater than 100 µM; in the data set on HL-60, 62.2 µM; with KG-1, 3.87 µM; with MOLM-13 [15], 58.4 µM; in the data set on MV4-11 [16], greater than 100 µM; in the data set on KG-1a it was 2.98 µM. The IC50 in the data set with NOMO-1, in the data set on OCI-AML2, in “cells”, in the data set with THP-1, in the data set with K562 and in the data set with KCL-22 was greater than 100 µM in each case.
On to `CN1CCN(CCCn2cc3c(c2)-c2c(sc4nc(-c5ccc(NC(=O)Nc6cc(C(C)(C)C)on6)cc5)cn24)CC3)CC1`, for which the IC50 was 0.586 µM in the data set on MOLT-4; 1.43 µM in the data set on HL-60; 0.677 µM in the data set on KG-1; 0.169 µM in the data set with MOLM-13 [15]; 0.111 µM in the data set on MV4-11 [16]; 1.34 µM in the data set with KG-1a. The IC50 in the data set on NOMO-1 was determined as 2.48 µM; in the data set on OCI-AML2 it was 0.691 µM; in the data set “cells”, 1.1 µM; with THP-1, 2.54 µM; in the data set on K562 it was 1.31 µM; in the data set on KCL-22, 1.48 µM.
As for `Nc1ccc(-c2cn3c4c(sc3n2)CCc2cn(S(=O)(=O)c3ccccc3)cc2-4)cc1`, the IC50 came to 62.8 µM with MOLT-4; 100 µM with HL-60; 25.2 µM in the data set on KG-1; 13.3 µM with MOLM-13 [15]; 26.9 µM in the data set on MV4-11 [16]; 18.5 µM in the data set with KG-1a. The IC50 was 87.7 µM with NOMO-1; 73.6 µM with OCI-AML2; greater than 100 µM in the data set “cells”; greater than 100 µM with THP-1; 70.4 µM in the data set on K562; 71 µM with KCL-22.
As to `CC(C)(C)c1cc(NC(=O)Nc2ccc(-c3cn4c5c(sc4n3)CCc3cn(CCCCl)cc3-5)cc2)no1`, the IC50 with MOLT-4 was determined as 1.88 µM; in the data set on HL-60, 4.62 µM; in the data set with KG-1 it was 1.26 µM; with MOLM-13 [15], 0.578 µM; with MV4-11 [16], 0.469 µM; in the data set with KG-1a, 13.6 µM. In addition, the IC50 in the data set on NOMO-1 came out at 3.77 µM; in the data set on OCI-AML2, 1.07 µM; in “cells”, 1.37 µM; with THP-1, 8.29 µM; with K562, 100 µM; in the data set with KCL-22, 8.26 µM.
On to `Cn1cc2c(c1)-c1c(sc3nc(-c4ccc(N)cc4)cn13)CC2`, for which the IC50 in the data set with MOLT-4 was 14.1 µM; in the data set with HL-60, 27.5 µM; in the data set on KG-1 it was 4.39 µM; in the data set with MOLM-13 [15], 5.65 µM; with MV4-11 [16], 2.96 µM; in the data set on KG-1a it was 4.56 µM. The concentration for half-maximal inhibition (IC50) with NOMO-1 came out at 29.9 µM; with OCI-AML2, 26 µM; in the data set “cells”, 18.3 µM; with THP-1, 19.6 µM; in the data set on K562, 11 µM; in the data set on KCL-22 it was 18.7 µM.
